According to patent US20100041089A1, “IMPROVED METHOD FOR DETECTING CHEMICAL […]” (priority 2006, published 2010):

System: yeast genes (expressed mRNA)
Experiment: DNA chip measurement of expressed mRNA of yeast genes after culture with a toxic chemical substance
Assay type: cell-based, Saccharomyces cerevisiae S288C
Conditions: for level of expressed mRNA in the presence of chemical substance / level in the absence of chemical substance: cultured two hours with the chemical substance; for The level of expressed mRNA in the presence of chemical substance/The level of expressed mRNA in the absence of chemical substance: cultured two hours with substance
Protocol: Yeast (Saccharomyces cerevisiae S288C (a SUC2mal mel gap2 CUP1)) were cultured at 25° C. on YPD medium (yeast extract 1%, polypeptone 2%, glucose 2%). One of toxic chemical substances was added to the cell at logarithmic growth phase, and the cell was further cultured for two hours. Cell was cultured without any chemical substance in the same condition, and was used as a control. Concentrations of the chemical substances were defined to inhibit the growth of the yeast but not lead to death.
After the completion of cultivation, the culture was centrifuged to collect the cells. To the cells, sodium acetate buffer (50 mM sodium acetate, 10 mM EDTA, 1% SDS) was added, and the mixture was shaken at 65° C. for five minutes, followed by returning to room temperature, and obtaining the supernatant, which procedure was repeated two times. To the supernatant, ½ amount of a solution of phenol/chloroform (1:1) was added, and the mixture was centrifuged to give a supernatant, an equal amount of chloroform was added, and the mixture was centrifuged to give a supernatant. To the supernatant, an equal amount of isopropanol containing 0.3 M sodium acetate was added, and the mixture was allowed to stand at room temperature for 30 minutes, after which the mixture was centrifuged to give sediment of the whole RNAs. Seventy % ethanol was added to the sediment, and the mixture was again centrifuged to give sediment, which was then dried and dissolved in water. mRNA was isolated from the whole RNAs as followings. In view of the fact that a poly A chain is attached to the 3′ terminus of mRNA, a polynucleotide having a poly T structure which was immobilized on the surface of latex beads was used to trap the mRNA, and then the mRNA was washed and eluted with spine column (Oligotex-dT30<Super>mRNA Purification Kit, Takara). Reverse transcription of the mRNA was conducted with a reverse transcriptase (Super Script II Reverse Transcriptase; catalogue No. 18064-014, GibcoBRL) using fluorescence-labeled nucleotides to give cDNAs that were introduced with Cy3-dUTP or Cy5-dUTP during the reverse transcription.
The labeled cDNAs were dissolved in TE buffer (10 mM Tris-HCl/1 mM EDTA, pH 8.0), and the solution was dropped on the DNA chip containing the whole genes of yeast (DNA Chip Research Inc. Japan) so that the cDNAs were hybridized on the DNA chip at 65° C. for over 12 hours. The fluoresces intensity of the DNA chip was read with a scanner, and the ratio relative to the fluorescence intensity resulting from the absence of chemical substance was estimated as the following, which is shown in Tables 1 to 9.
In the Tables, “Intensity” indicated in the rightmost column is a value of the level of expressed mRNA of each gene in control cells as divided by the average level of the expressions of the whole genes. A gene of which mRNA level is lower in control, and is higher in cases of addition of chemical substance, is especially useful in the detection of toxic substances.
Here, when a ratio of an amount of mRNA expressed in the presence of the chemical substance to an amount of mRNA expressed in the absence of the chemical substance is two or more, then it is considered significant.

## Na2As [(1)]
Gene YBR036C, Metabolism protein genes, DNA chip fluorescence ratio
  The level of expressed mRNA in the presence of chemical substance/The level of expressed mRNA in the absence of chemical substance, yeast gene YBR036C: 0.8
Gene YBR298C, Metabolism protein genes, DNA chip fluorescence ratio
  The level of expressed mRNA in the presence of chemical substance/The level of expressed mRNA in the absence of chemical substance, yeast gene YBR298C: 1.1
Gene YDL067C (mitochondria-located protein gene), yeast cultured two hours with chemical substance, DNA chip fluorescence ratio to control
  The level of expressed mRNA in the presence of chemical substance/The level of expressed mRNA in the absence of chemical substance, yeast gene YDL067C: 1.8
Gene YDL078C, Metabolism protein genes, DNA chip fluorescence ratio
  The level of expressed mRNA in the presence of chemical substance/The level of expressed mRNA in the absence of chemical substance, yeast gene YDL078C: 0.7
Gene YDL215C, Metabolism protein genes, DNA chip fluorescence ratio
  The level of expressed mRNA in the presence of chemical substance/The level of expressed mRNA in the absence of chemical substance, yeast gene YDL215C: 1.0
Gene YDR079W (mitochondria-located protein gene), yeast cultured two hours with chemical substance, DNA chip fluorescence ratio to control
  The level of expressed mRNA in the presence of chemical substance/The level of expressed mRNA in the absence of chemical substance, yeast gene YDR079W: 1.3
Gene YDR297W, Metabolism protein genes, DNA chip fluorescence ratio
  The level of expressed mRNA in the presence of chemical substance/The level of expressed mRNA in the absence of chemical substance, yeast gene YDR297W: 1.5
Gene YDR387C, Metabolism protein genes, DNA chip fluorescence ratio
  The level of expressed mRNA in the presence of chemical substance/The level of expressed mRNA in the absence of chemical substance, yeast gene YDR387C: 0.8
Gene YGL035C, Metabolism protein genes, DNA chip fluorescence ratio
  The level of expressed mRNA in the presence of chemical substance/The level of expressed mRNA in the absence of chemical substance, yeast gene YGL035C: 0.7
Gene YGR062C (mitochondria-located protein gene), yeast cultured two hours with chemical substance, DNA chip fluorescence ratio to control
  The level of expressed mRNA in the presence of chemical substance/The level of expressed mRNA in the absence of chemical substance, yeast gene YGR062C: 0.9
Gene YGR287C, Metabolism protein genes, DNA chip fluorescence ratio
  The level of expressed mRNA in the presence of chemical substance/The level of expressed mRNA in the absence of chemical substance, yeast gene YGR287C: 1.3
Gene YJL070C, Metabolism protein genes, DNA chip fluorescence ratio
  The level of expressed mRNA in the presence of chemical substance/The level of expressed mRNA in the absence of chemical substance, yeast gene YJL070C: 1.3
Gene YJL096W (mitochondria-located protein gene), yeast cultured two hours with chemical substance, DNA chip fluorescence ratio to control
  The level of expressed mRNA in the presence of chemical substance/The level of expressed mRNA in the absence of chemical substance, yeast gene YJL096W: 1.0
Gene YJL180C (mitochondria-located protein gene), yeast cultured two hours with chemical substance, DNA chip fluorescence ratio to control
  The level of expressed mRNA in the presence of chemical substance/The level of expressed mRNA in the absence of chemical substance, yeast gene YJL180C: 0.9
Gene YKR009C, Metabolism protein genes, DNA chip fluorescence ratio
  The level of expressed mRNA in the presence of chemical substance/The level of expressed mRNA in the absence of chemical substance, yeast gene YKR009C: 1.0
Gene YLR295C (mitochondria-located protein gene), yeast cultured two hours with chemical substance, DNA chip fluorescence ratio to control
  The level of expressed mRNA in the presence of chemical substance/The level of expressed mRNA in the absence of chemical substance, yeast gene YLR295C: 1.4
Gene YLR351C, Metabolism protein genes, DNA chip fluorescence ratio
  The level of expressed mRNA in the presence of chemical substance/The level of expressed mRNA in the absence of chemical substance, yeast gene YLR351C: 1.0
Gene YLR375W, Metabolism protein genes, DNA chip fluorescence ratio
  The level of expressed mRNA in the presence of chemical substance/The level of expressed mRNA in the absence of chemical substance, yeast gene YLR375W: 0.9
Gene YMR023C (mitochondria-located protein gene), yeast cultured two hours with chemical substance, DNA chip fluorescence ratio to control
  The level of expressed mRNA in the presence of chemical substance/The level of expressed mRNA in the absence of chemical substance, yeast gene YMR023C: 1.4
Gene YMR267W (mitochondria-located protein gene), yeast cultured two hours with chemical substance, DNA chip fluorescence ratio to control
  The level of expressed mRNA in the presence of chemical substance/The level of expressed mRNA in the absence of chemical substance, yeast gene YMR267W: 0.8
Gene YMR267W, Metabolism protein genes, DNA chip fluorescence ratio
  The level of expressed mRNA in the presence of chemical substance/The level of expressed mRNA in the absence of chemical substance, yeast gene YMR267W: 0.8
Gene YMR278W, Metabolism protein genes, DNA chip fluorescence ratio
  The level of expressed mRNA in the presence of chemical substance/The level of expressed mRNA in the absence of chemical substance, yeast gene YMR278W: 0.7
Gene YMR293C, Metabolism protein genes, DNA chip fluorescence ratio
  The level of expressed mRNA in the presence of chemical substance/The level of expressed mRNA in the absence of chemical substance, yeast gene YMR293C: 0.9
Gene YNL073W (mitochondria-located protein gene), yeast cultured two hours with chemical substance, DNA chip fluorescence ratio to control
  The level of expressed mRNA in the presence of chemical substance/The level of expressed mRNA in the absence of chemical substance, yeast gene YNL073W: 0.8
Gene YNR072W, Metabolism protein genes, DNA chip fluorescence ratio
  The level of expressed mRNA in the presence of chemical substance/The level of expressed mRNA in the absence of chemical substance, yeast gene YNR072W: 1.1
Gene YOL096C, Metabolism protein genes, DNA chip fluorescence ratio
  The level of expressed mRNA in the presence of chemical substance/The level of expressed mRNA in the absence of chemical substance, yeast gene YOL096C: 1.1
Gene YOR180C, Metabolism protein genes, DNA chip fluorescence ratio
  The level of expressed mRNA in the presence of chemical substance/The level of expressed mRNA in the absence of chemical substance, yeast gene YOR180C: 0.8
Gene YOR316C (mitochondria-located protein gene), yeast cultured two hours with chemical substance, DNA chip fluorescence ratio to control
  The level of expressed mRNA in the presence of chemical substance/The level of expressed mRNA in the absence of chemical substance, yeast gene YOR316C: 0.7
Gene YOR363C, Metabolism protein genes, DNA chip fluorescence ratio
  The level of expressed mRNA in the presence of chemical substance/The level of expressed mRNA in the absence of chemical substance, yeast gene YOR363C: 0.8
Gene YPL040C (mitochondria-located protein gene), yeast cultured two hours with chemical substance, DNA chip fluorescence ratio to control
  The level of expressed mRNA in the presence of chemical substance/The level of expressed mRNA in the absence of chemical substance, yeast gene YPL040C: 1.1
Gene YPL134C (mitochondria-located protein gene), yeast cultured two hours with chemical substance, DNA chip fluorescence ratio to control
  The level of expressed mRNA in the presence of chemical substance/The level of expressed mRNA in the absence of chemical substance, yeast gene YPL134C: 1.5
Gene YPR184W, Metabolism protein genes, DNA chip fluorescence ratio
  The level of expressed mRNA in the presence of chemical substance/The level of expressed mRNA in the absence of chemical substance, yeast gene YPR184W: 1.2
Yeast gene YAL018C
  level of expressed mRNA in the presence of chemical substance / level in the absence of chemical substance: 2.0
Yeast gene YAL053W
  The level of expressed mRNA in the presence of chemical substance/The level of expressed mRNA in the absence of chemical substance: 0.9
Yeast gene YAR047C
  level of expressed mRNA in the presence of chemical substance / level in the absence of chemical substance: 1.1
Yeast gene YAR064W
  level of expressed mRNA in the presence of chemical substance / level in the absence of chemical substance: 2.1
Yeast gene YBL044W
  level of expressed mRNA in the presence of chemical substance / level in the absence of chemical substance: 0.9
Yeast gene YBL048W
  The level of expressed mRNA in the presence of chemical substance/The level of expressed mRNA in the absence of chemical substance: 2.0
Yeast gene YBL107C
  The level of expressed mRNA in the presence of chemical substance/The level of expressed mRNA in the absence of chemical substance: 1.4
Yeast gene YBR012C
  level of expressed mRNA in the presence of chemical substance / level in the absence of chemical substance: 2.5
Yeast gene YBR066C
  level of expressed mRNA in the presence of chemical substance / level in the absence of chemical substance: 1.9
Yeast gene YBR124W
  level of expressed mRNA in the presence of chemical substance / level in the absence of chemical substance: 0.9
Yeast gene YBR162C
  level of expressed mRNA in the presence of chemical substance / level in the absence of chemical substance: 0.6
Yeast gene YBR287W
  level of expressed mRNA in the presence of chemical substance / level in the absence of chemical substance: 1.7
Yeast gene YCL056C
  level of expressed mRNA in the presence of chemical substance / level in the absence of chemical substance: 1.3
Yeast gene YCR007C
  level of expressed mRNA in the presence of chemical substance / level in the absence of chemical substance: 2.2
Yeast gene YDL046W
  level of expressed mRNA in the presence of chemical substance / level in the absence of chemical substance: 1.2
Yeast gene YDL072C
  The level of expressed mRNA in the presence of chemical substance/The level of expressed mRNA in the absence of chemical substance: 1.3
Yeast gene YDL204W
  The level of expressed mRNA in the presence of chemical substance/The level of expressed mRNA in the absence of chemical substance: 1.4
Yeast gene YDL222C
  The level of expressed mRNA in the presence of chemical substance/The level of expressed mRNA in the absence of chemical substance: 0.9
Yeast gene YDR090C
  level of expressed mRNA in the presence of chemical substance / level in the absence of chemical substance: 0.9
Yeast gene YDR128W
  level of expressed mRNA in the presence of chemical substance / level in the absence of chemical substance: 0.6
